Source: PubChem BioAssay (NCI)
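These data come from cells grown in 96-well plates and exposed to compound for 48 hours at five concentrations. GI50 is the concentration that inhibits growth by half. At the TGI there is no net growth.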

Columns and labels:
Assay in all cases: NCI anticancer screen, dose series, 48 h
MOLT-4 leukemia = tested on: MOLT-4 leukemia
CCRF-CEM leukemia = tested on: CCRF-CEM leukemia
HCT-116 colon = tested on: HCT-116 colon
SK-MEL-5 melanoma = tested on: SK-MEL-5 melanoma
HS 578T breast = tested on: HS 578T breast
SN12C renal = tested on: SN12C renal
UO-31 renal = tested on: UO-31 renal
HT29 colon = tested on: HT29 colon
MDA-N = tested on: MDA-N

Structure (SMILES)	TGI (MOLT-4 leukemia)	TGI (CCRF-CEM leukemia)	TGI (HCT-116 colon)	TGI (SK-MEL-5 melanoma)	TGI (HS 578T breast)	TGI (SN12C renal)	TGI (UO-31 renal)	TGI (HT29 colon)	TGI (MDA-N)	GI50 (MOLT-4 leukemia)	GI50 (HS 578T breast)	GI50 (SN12C renal)	GI50 (UO-31 renal)	GI50 (HT29 colon)
CCOC(=O)C(C(=S)Nc1ccccc1)c1nn2c(=O)cc(C)nc2s1 (centres undefined)	69.1 µM	> 100 µM	48.3 µM	41.1 µM	> 100 µM	> 100 µM	70 µM	41.4 µM						
Cc1ccc(OC2CC(n3cnc4ncnc(Cl)c43)OC2Oc2ccc(C)cc2)cc1 (centres undefined)	> 100 µM		> 100 µM	46.4 µM	76.9 µM	> 100 µM	23.9 µM	> 100 µM	> 100 µM					
Nc1[nH]c(=S)nc2snnc12	> 100 µM	> 100 µM	> 100 µM	> 100 µM	> 100 µM	> 100 µM	> 100 µM	> 100 µM	> 100 µM					
CN1C(=O)[C@@H]2[C@@H]3c4ccccc4N(S(=O)(=O)C(F)(F)F)[C@@H]3c3[nH]c4ccccc4c3[C@@H]2C1=O	47 µM	> 100 µM	> 100 µM	> 100 µM	> 100 µM	> 100 µM	> 100 µM	> 100 µM	> 100 µM					
N#C/C(=C\NC(=S)c1ccncc1)c1nc2ccccc2s1	> 100 µM		> 100 µM	> 100 µM	> 100 µM	> 100 µM	> 100 µM	> 100 µM	> 100 µM					
COCOc1c(C(O[Si](C)(C)C(C)(C)C)c2cnc(Sc3ccccc3)n2C)ccc(OC)c1OC (centres undefined)	8.95 µM	9 µM	2.95 µM	3.21 µM	6.17 µM	3.31 µM	3.32 µM	4.15 µM	3.34 µM					
CCOC(=O)c1ccc(C(=O)/C(C(C)=O)=C2\CCCN2C)n1C	> 100 µM	> 100 µM	> 100 µM	> 100 µM	> 100 µM	> 100 µM	> 100 µM		> 100 µM					
Fc1ccc2nc3n(c2c1)C(c1c(Cl)cccc1Cl)SC3 (centres undefined)	> 100 µM		> 100 µM	> 100 µM	> 100 µM	> 100 µM	> 100 µM	> 100 µM	> 100 µM					
CCOC(=O)NC(NC1=NCCS1)(C(=O)OCC)C(F)(F)F (centres undefined)	> 100 µM	> 100 µM	> 100 µM	> 100 µM	> 100 µM	> 100 µM	> 100 µM	> 100 µM	> 100 µM					
COc1ccc(/C=C2\CCC(CNc3ccc(OC)cc3)C2=O)cc1 (centres undefined)	> 40.8 µM	29.9 µM	23.2 µM	35.2 µM	> 100 µM	33.1 µM	36.1 µM	33.2 µM	30.8 µM					
COC1(OC)CC(CO)(CNc2cc(Cl)nc(N)n2)C1	> 100 µM	> 100 µM	> 100 µM	> 100 µM	> 100 µM	> 100 µM	> 100 µM	> 100 µM	> 100 µM					
CC(=C(C(N)=O)C(N)=O)C1C=C(c2cccs2)CC(c2ccc(Cl)cc2)=C1O (centres undefined)	> 100 µM	79.4 µM	> 100 µM	> 100 µM	> 100 µM	> 100 µM	> 100 µM	> 100 µM	> 100 µM					
Cc1noc2nnn(-c3ccc(Cl)cc3)c(=O)c12	1.94 µM	2.48 µM	11.3 µM	13 µM	> 60.3 µM	12.2 µM	8.63 µM	17.2 µM	17.9 µM					
COc1ccc2sc(-n3nc4ccccc4c3Nc3nc4ccc(OC)cc4s3)nc2c1		> 100 µM	5.95 µM	9.97 µM	5.61 µM	18.5 µM	34 µM	14.7 µM						
CCOC(=O)C1OC(C2(C)OC3(OC4(C=CC3O)OC(C(C)C(=O)C(C)C(O)C(C)CC(C)c3c(Cl)cc(C)c(O)c3C(=O)O)C(C)CC4C)C(C)C2OC)CC1O (centres undefined)		1.04 µM	3.75 µM	5.59 µM	11.7 µM	4.84 µM	3.95 µM	3.57 µM	4.76 µM					
O=C1/C(=C/c2ccccc2O)N=C(c2ccccc2)N1c1nc2ccccc2s1	60.7 µM	> 100 µM	77.5 µM	23.3 µM	58.4 µM		> 100 µM	74 µM	8.55 µM					
COc1cc(/C=C/C(=O)c2c(C)nc3ccccc3c2C)ccc1OCCCOc1cc2c(cc1OC)C(=O)N1CCC[C@H]1C=N2		0.0215 µM			0.0577 µM	0.327 µM	0.817 µM	3.03 µM		0.0323 µM	0.0209 µM	0.0353 µM	0.0583 µM	0.028 µM
COc1ccc(/C=C2\N=C(c3ccccc3)N(N=C3NC(=O)CC(=O)N3)C2=O)cc1	> 100 µM	> 100 µM	> 100 µM	> 100 µM	> 100 µM	> 100 µM	> 100 µM	> 100 µM	> 100 µM					
CC1OC2(CC(OCc3ccccc3)C1OCc1ccccc1)OCCO2 (centres undefined)	75.2 µM	> 100 µM	> 100 µM	> 100 µM	> 100 µM	> 100 µM	> 100 µM	58.2 µM	> 100 µM					
Cc1ccc(-n2[nH]nc(C#N)c2=O)cc1	> 100 µM	> 100 µM	> 100 µM	> 100 µM	> 100 µM	> 100 µM	> 100 µM	> 100 µM	> 100 µM					
c1ccc2c(c1)ncn2C1CCCCO1 (centres undefined)	> 100 µM	> 100 µM	> 100 µM	> 100 µM	> 100 µM	> 100 µM	> 100 µM	> 100 µM	> 100 µM					
N=C(N)SCc1ccc(Cl)cc1Cl (tested in a mixture with another compound)	35.4 µM	15.5 µM	25 µM	29.2 µM	45.2 µM	27 µM	23.1 µM	29.2 µM	21.6 µM					
CCN1CCN(c2nc3ccc([N+](=O)[O-])cc3nc2C(=O)c2ccccc2)CC1	> 100 µM	8.27 µM	31.2 µM			30.9 µM	25.2 µM		33.9 µM					
CSc1c(C#N)c(N)nc2c(N=Nc3ccc(Cl)cc3)c(N)nn12	5.47 µM	5.47 µM		35 µM	3.43 µM	8.1 µM	4.42 µM	8.38 µM	23.4 µM					
